Data as given in US5240961A, “Method of treating reduced insulin-like growth factor and bone loss associated with aging” (priority 1992, dated 1993).
Where “and” joins values, the source holds several entries; their conditions need not be identical. Equal values may be shown once. Entries after “also recorded” stand apart in the source; their conditions may differ. Read-outs that look alike come from different tables or passages of the source.

How the values were obtained:
[1] = Serum carnitine at 12 weeks in adult mice fed L-carnitine, acetyl carnitine or γ-butyrobetaine; set-up: species or system mouse (BALB/c male); settings: mouse, in vivo, po, Serum carnitine
Procedure: (§1) The present invention is further explained by the following examples which should not be construed by way of limiting the scope of the present invention. In the following examples, serum carnitine levels were determined by the method of R. Parvin et al., Anal. Biochem., vol. 79 (1979) pp. 190-201. Serum IGF-1 concentrations were measured by immunoradiometric assay, for example, by IRMA Kit available from Diagnostic Systems Laboratories, Inc., Webster, Texas. Serum osteocalcin levels were measured according to the method of Grunaberg et al., Meth. Enzymology, vol 107 (1984) 516, and which is embodied in an osteocalcin kit available from Biomedical Technologies, Inc., Stoughton, Mass. All mice used in the animal studies were BALB/c strain which is commercially available.
(§2) Tests were performed to compare the effects on serum osteocalcin of diet supplementation with L-carnitine, its precursor, γ-butyrobetaine (available from Aldrich Chemical Co.) and one of its metabolites, acetylcarnitine (available from Life Science Resources, Milwaukee, Wis. 53223). Twenty adult mice, i.e., three months of age, (BALB/c male mice) were divided into seven groups. Each of the groups was fed diets as indicated hereinbelow for twelve weeks. One group (n=3) was fed a diet with L-carnitine supplementation at a dose of 50 mg/kg of body weight each day, while the second group (n=3) was fed L-carnitine at a daily dose of about 100 mg/kg. The third group (n=2) was fed a diet with acetylcarnitine supplementation at a daily dose of 50 mg/kg, while the fourth group (n=3) was fed a daily dose of 100 mg/kg of this compound. The fifth group (n=2) was fed a daily dose of 50 mg/kg of γ-butyrobetaine supplementation,while the sixth group was fed a daily dose of 100 mg/kg of γ-butyrobetaine. The seventh group (n=4) was fed normal, unsupplemented feed (control). Mouse blood was sampled prior to beginning of the trial (pretreatment), at six weeks, and at the end of the trial (twelve weeks). The samples were evaluated for serum osteocalcin levels at six and twelve weeks. Total carnitine was determined at twelve weeks.

[2] = system: serum osteocalcin; assay: Comparative effects of L-carnitine, acetyl carnitine and γ-butyrobetaine on serum osteocalcin in adult mice; format: in vivo, mouse (BALB/c male); settings: for Osteocalcin: actual intake estimated about half
Procedure: as §1, §2

[3] = system: serum osteocalcin; assay: Osteocalcin response to L-carnitine in aged mice; format: in vivo, mouse (BALB/c)
Procedure: as §1
Forty aged mice were separated into two groups. After an initial acclimatizing period of one week, one group was fed a diet with L-carnitine supplementation for six weeks and the other was fed normal, unsupplemented feed (control). […] The average daily food for each mouse was determined by weighing the food initially placed in the food bin and weighing the remaining food. […] Mouse blood was sampled prior to beginning of the trial (pretreatment), at the end of three weeks, and at six weeks (posttreatment), and was evaluated for serum osteocalcin and carnitine levels.

[4] = Serum carnitine levels in young mice fed L-carnitine; format: in vivo, mouse (BALB/c); settings: mouse, po, 50 mg/kg/day, 50 mg/kg/day oral
Procedure: as §1
Similar tests were performed on six young mice, i.e., 2 months 5 months of age. One group (n=3) was fed a diet with L-carnitine supplementation for three months, the other (n=3) was fed normal, unsupplemented feed (control). Each mouse in the test group was fed a daily oral dose of L-carnitine of about 50 mg/kg of body weight. Mouse blood was sampled prior to beginning of the trial (pretreatment) i.e., at two months of age, and at 5 months of age, and was evaluated for serum osteocalcin and carnitine levels.

[5] = system: serum carnitine; assay: Serum carnitine after oral L-carnitine in healthy adults over 60 (Example 4); format: in vivo, human; settings: individual subjects, 2 g/day oral, three months; for concentration: 131400 min
Procedure: as §1
(§3) Seven adults from Example 3 agreed to receive a daily dosage of L-carnitine of 2 g/day, self-administered orally, for three months. Doses were administered four times daily, and each dose consisted of two 250 mg tablets. Of the seven individuals, two individuals dropped out of the study due to unrelated illness; thus, five remained in the study to completion. The following were evaluated by pretreatment and posttreatment comparisons: serum carnitine and serum IGF-1 by known methods, and bone mineral contents by bone scan of thoracic region, i.e., thoracic vertebrae, on a NORLAND scanner.

[6] = system: serum carnitine; assay: Serum carnitine levels in aged mice fed L-carnitine; format: in vivo, mouse (BALB/c); settings: 50 mg/kg/day
Procedure: as §1
(§4) Forty aged mice were separated into two groups. After an initial acclimatizing period of one week, one group was fed a diet with L-carnitine supplementation for six weeks and the other was fed normal, unsupplemented feed (control). Each mouse in the test group was fed a daily oral dose of L-carnitine of about 50 mg/kg of body weight. The average daily food for each mouse was determined by weighing the food initially placed in the food bin and weighing the remaining food. The feed was supplemented with L-carnitine so that each mouse in the test group consumed the test dose (50 mg/kg) of L-carnitine each day. Mouse blood was sampled prior to beginning of the trial (pretreatment), at the end of three weeks, and at six weeks (posttreatment), and was evaluated for serum osteocalcin and carnitine levels.

[7] = as above; format: in vivo, mouse (BALB/c); settings: mouse, serum, po, 50 mg/kg/day, 50 mg/kg/day oral, six weeks
Procedure: as §1, §4

[8] = system: serum carnitine; assay: Serum carnitine after oral L-carnitine, double-blind study in patients over 60 (Example 5); format: in vivo, human; settings: individual subjects 010-019, 2 g/day oral
Procedure: as §1
(§5) Nineteen patients (over age 60) were enrolled in a preliminary double-blindstudy to establish the effect of oral L-carnitine treatment on serum IGF-1 and osteocalcin levels. Baseline, i.e., pretreatment, levels of serum IGF-1, osteocalcin and carnitine were measured by known methods. The patients were divided into two groups, control (n=9; subjects 001-009 in Table 5 below) and treatment (n=10; subjects 010-019 in Table 5 below). The treatment group received a daily dosage of 2 g of L-carnitine orally, self-administered, in four separate doses of two 250 mg tablets taken four times per day, for twelve weeks. The control group were given placebo, e.g., simple sugar. Serum samples were drawn every four weeks, and serum carnitine, IGF-1 and osteocalcin were determined.

[9] = as above; format: in vivo, human; settings: human, serum, po, 2 g/day
Procedure: as §1, §5

[10] = system: serum IGF-1; assay: IGF-1 response to L-carnitine supplementation in healthy adults over 60 (Example 4); format: in vivo, human; settings: three months
Procedure: as §1, §3

[11] = read-out: Serum Carnitine, Free
[12] = read-out: Serum Carnitine, Total

SMILES: C[N+](C)(C)C[C@H](O)CC(=O)[O-] [L-carnitine]
- concentration at 2016 h ([1]; 50 mg/kg/day, Free): 52.1 µM
- concentration at 2016 h ([1]; 50 mg/kg/day, Total): 66 µM
- concentration at 2016 h ([1]; 100 mg/kg/day, Free): 41.6 µM
- concentration at 2016 h ([1]; 100 mg/kg/day, Total): 59.5 µM
- significance of difference in osteocalcin vs control (p, student's t test) ([2]; 50 mg/kg/day): < 0.01
- Osteocalcin ([2]; 50 mg/kg/day, 6 wks): 151 ng/mL and 151 ± 4 ng/mL
- Osteocalcin ([2]; 50 mg/kg/day, 12 wks): 153 ng/mL
- significance of difference in osteocalcin vs control (p, student's t test) ([2]; 100 mg/kg/day): < 0.05
- Osteocalcin ([2]; 100 mg/kg/day, 6 wks): 199 ng/mL and 199 ± 7 ng/mL
- Osteocalcin ([2]; 100 mg/kg/day, 12 wks): 115 ng/mL
- effect on osteocalcin ([2]; adult mice, 50 and 100 mg/kg/day): stimulate osteocalcin production in adult mice; also recorded: maintained osteocalcin blood levels
- Osteocalcin ([3]; aged mice (18 months), 50 mg/kg/day oral in feed, six weeks): 29.6 ± 3.6 ng/mL
- significance of difference in osteocalcin, treated vs control (p, student's t test) ([3]; aged mice, 50 mg/kg/day): ≤ 0.05
- concentration at 2190 h [4, 11]: 60.2 µM
- concentration at 2190 h [4, 12]: 84.2 µM
- concentration ([5]; read-out: Carnitine, Free, posttreatment): 57 µM and 55.4 µM and 38.6 µM and 44.8 µM
- concentration ([5]; read-out: Carnitine, Total, posttreatment): 70.7 µM and 68.9 µM and 54.7 µM and 73.4 µM
- Carnitine E/F, posttreatment ([5]; ratio esterified/free): 0.32 and 0.24 and 0.42 and 0.64
- carnitine levels vs control group [6]: higher carnitine levels than the control group
- concentration at 1008 h [7, 11]: 57 ± 9.7 µM
- concentration at 1008 h [7, 12]: 80.2 ± 9.5 µM
- concentration ([8]; 4 weeks, 40320 min, read-out: Serum carnitine, Free): 54.4 µM and 61.6 µM and 36.6 µM and 66.6 µM and 67.4 µM and 52 µM and 67.2 µM and 40.4 µM and 61.2 µM and 85 µM
- concentration ([8]; 4 weeks, 40320 min, read-out: Serum carnitine, Total): 71.6 µM and 72.5 µM and 52.4 µM and 80.3 µM and 120 µM and 67 µM and 84.4 µM and 54.3 µM and 73 µM and 108 µM
- concentration ([8]; 8 weeks, 80640 min, read-out: Serum carnitine, Free): 58.6 µM and 52.6 µM and 65.2 µM and 74.6 µM and 57 µM and 67.4 µM and 39.4 µM and 61.2 µM
- concentration ([8]; 8 weeks, 80640 min, read-out: Serum carnitine, Total): 76.6 µM and 64.8 µM and 72.5 µM and 91.7 µM and 67.9 µM and 83.4 µM and 51.5 µM and 83.9 µM
- concentration ([8]; 12 weeks, 120960 min, read-out: Serum carnitine, Free): 61 µM and 49.6 µM and 70 µM and 55.8 µM and 69.6 µM
- concentration ([8]; 12 weeks, 120960 min, read-out: Serum carnitine, Total): 79.3 µM and 62 µM and 75.7 µM and 70.2 µM and 94.4 µM
- concentration at 1344 h ([9]; individual subjects 010-019, 2 g/day oral, 8 weeks, read-out: Serum carnitine, Free): 65.4 µM
- concentration at 1344 h ([9]; individual subjects 010-019, 2 g/day oral, 8 weeks, read-out: Serum carnitine, Total): 88 µM
- concentration at 2016 h ([9]; individual subjects 010-019, 2 g/day oral, 12 weeks, read-out: Serum carnitine, Free): 72.6 µM
- concentration at 2016 h ([9]; individual subjects 010-019, 2 g/day oral, 12 weeks, read-out: Serum carnitine, Total): 101 µM
- concentration at 1344 h ([9]; treatment group average, eight weeks, read-out: average total carnitine): 75.6 µM
- concentration at 672 h ([9]; treatment group average, four weeks, read-out: average total carnitine): 78.4 µM
- concentration at 2016 h ([9]; treatment group average, twelve weeks, read-out: average total carnitine): 81.5 µM
- significance of IGF-1 increase (p, paired comparisons) ([10]; 2 g/day oral): ≤ 0.05
- IGF-1, posttreatment ([10]; individual subjects 001-005, 2 g/day oral): 396 ng/mL and 280 ng/mL and 148 ng/mL and 270 ng/mL and 264 ng/mL
- mean IGF-1 after treatment ([10]; mean, 2 g/day oral, pretreatment mean 170): 272 ng/mL
